# Earlier results as cited in Sander's compilation of Henry's law constants (doi:10.1002/etc.5620190905).
# Assay: Henry solubility constant Hcp at 298.15 K (mol/(m3 Pa))
# Settings: reference: Armbrust (2000); cited value
row,SMILES,Henry solubility constant Hcp
1,O=[N+]([O-])/N=C1\NCCN1Cc1ccc(Cl)nc1 [imidacloprid],4.9e+09
2,CCOP(=S)(OCC)Oc1nc(Cl)c(Cl)cc1Cl [chlorpyrifos],1.4
3,COC(=O)c1ccccc1CS(=O)(=O)NC(=O)Nc1nc(OC)cc(OC)n1 [bensulfuron methyl],7e+10
4,"N#Cc1c(Cl)c(Cl)c(Cl)c(C#N)c1Cl [2,4,5,6-tetrachloro-1,3-dicyanobenzene]",45
5,"O=C(O)COc1ccc(Cl)cc1Cl [(2,4-dichlorophenoxy)-ethanoic acid]",5.5e+06
6,"O=C(O)COc1nc(Cl)c(Cl)cc1Cl [[(3,5,6-trichloro-2-pyridinyl)oxy]-acetic acid]",12000
7,CC(C)Oc1cc(-n2nc(C(C)(C)C)oc2=O)c(Cl)cc1Cl [oxadiazon],140
8,CCN(CC)C(=O)SCc1ccc(Cl)cc1 [S-(4-chlorobenzyl) diethylthiocarbamate],37
9,COC(=O)c1ccccc1S(=O)(=O)NC(=O)Nc1nc(C)cc(C)n1 [sulfometuron methyl],8.2e+12
10,COc1c(Cl)ccc(Cl)c1C(=O)O [dicamba],22000
11,COc1nc(C)nc(NC(=O)NS(=O)(=O)c2ccccc2Cl)n1 [chlorsulfuron],150000
